We go through 3 compounds from ChEMBL document CHEMBL6153083, “Synthesis, Structural Modification, and Antismall Cell Lung Cancer Activity of 3-Arylisoquinolines with Dual Inhibitory Activity on Topoisomerase I and II” (J Med Chem, 2025).

For series [1], the system named is NCI-H446. Put plainly: Inhibition of cell invasion in human NCI-H446 cells incubated for 24 hrs by transwell assay. It is filed as functional, cell-based.
Series [2] is described as follows: Antiproliferative activity against human L02 cells incubated for 72 hrs. Type of series: toxicity, cell-based.
Series [3] has as its system NCI-H446. In words: Induction of early apoptosis in human NCI-H446 cells incubated for 48 hrs by Annexin V-FITC/PI staining based flow cytometry. It is filed as functional, cell-based. Particulars: dose 1-8 µM; call rule not given here. For orientation: A flow cytometer gives signals particle by particle.
Series [4] concerns NCI-H1048. In words: Induction of early apoptosis in human NCI-H1048 cells incubated for 48 hrs by Annexin V-FITC/PI staining based flow cytometry. It is filed as functional, cell-based. Particulars: dose 1-8 µM.
For series [5], the system named is NCI-H1048. In words: Inhibition of cell invasion in human NCI-H1048 cells incubated for 24 hrs by transwell assay. Type of series: functional, cell-based.
Series [6] has as its system NCI-H1048. Put plainly: Antiproliferative activity against human NCI-H1048 cells incubated for 72 hrs. It is filed as functional, cell-based. Particulars: NCI-H1048, 72 h.
Series [7] concerns NCI-H446. Put plainly: Antitumor activity against human NCI-H446 cells xenografted in BALB/c nude mouse at 20 mg/kg, ip for 21 days relative to control. Type of series: functional. Particulars: NCI-H446, 504 h, time 21 day, read-out: TGI. (Xenograft models place foreign cells or tissue in a host animal.)
For the next series, the system named is NCI-H146. Put plainly: Antiproliferative activity against human NCI-H146 cells incubated for 72 hrs. It is filed as functional, cell-based. Particulars: NCI-H146, 72 h.
In another series the test system is SHP77. Put plainly: Antiproliferative activity against human SHP77 cells incubated for 72 hrs. Type of series: functional, cell-based. Conditions: SHP77, 72 h.
Series [8] in a line: Antiproliferative activity against human NCI-H196 cells incubated for 72 hrs. Type of series: functional, cell-based. Particulars: NCI-H196, 72 h.
The nature of series [9]: Antiproliferative activity against human BEAS-2B cells incubated for 72 hrs. It is filed as toxicity, cell-based.
Series [10] is described as follows: Toxicity in BALB/c nude mouse xenografted with human NCI-H446 cells assessed as body weight change at 20 mg/kg, ip for 21 days. It is filed as organism-based. Particulars: in vivo, 504 h, time 21 day.
A further series concerns NCI-H82. Put plainly: Antiproliferative activity against human NCI-H82 cells incubated for 72 hrs. It is filed as functional, cell-based. Particulars: NCI-H82, 72 h.
Series [11] deals with NCI-H446. Put plainly: Antiproliferative activity against human NCI-H446 cells incubated for 72 hrs. Type of series: functional, cell-based. Particulars: NCI-H446, 72 h.
The test system of a further series is NCI-H209. In words: Antiproliferative activity against human NCI-H209 cells incubated for 72 hrs. Type of series: functional, cell-based. Particulars: NCI-H209, 72 h.

Usually IC50 stands for the point on the concentration scale where inhibition reaches its midpoint. Read a low IC50 as greater potency in that assay. For `COc1cc([C@@H]2c3cc4c(cc3[C@@H](O[C@@H]3O[C@@H]5CO[C@@H](C)O[C@H]5[C@H](O)[C@H]3O)[C@H]3COC(=O)[C@H]23)OCO4)cc(OC)c1O` [ETOPOSIDE], the inhibition result in the series on NCI-H446 [1] and with NCI-H1048 [5] was “Dose-dependent-effect” throughout. For the same compound, the IC50 at 72 h in series [2] was found to be 15.9 µM; in series [9] it was 6.19 µM. Besides, the results for the Activity entry (in the series with NCI-H446 [3]; in the series with NCI-H1048 [4]; in series [10]) were “Not active; Exhibited Minimal Impact”, “Not active; Exhibited Minimal Impact” and “Toxic”, respectively. Besides, the concentration for half-maximal inhibition (IC50) amounted to 1.52 µM in the series with NCI-H1048 [6]; 10.6 µM with NCI-H146; 26.3 µM in the series on SHP77; 24.1 µM in [8]; 8.39 µM with NCI-H82; 2.1 µM in the series with NCI-H446 [11]. The IC50 with NCI-H209 was over 100 µM. Besides, the inhibition in vivo at 20 mg/kg with NCI-H446 [7] amounted to 68.7%.
Turning to `CCC(=O)C1CCN(Cc2cc3c(cc2-c2cc4ccc5c(c4cn2)OCO5)OCO3)CC1`, the concentration for half-maximal inhibition (IC50) at 72 h in series [2] was 41.7 µM; in series [9], over 100 µM. Besides, the IC50 in the series on NCI-H1048 [6] is over 100 µM; in the series on NCI-H146, 42.6 µM; in the series with SHP77, 26.5 µM; in [8], 34.5 µM; in the series on NCI-H82 it was 48.8 µM; in the series with NCI-H446 [11], 21.2 µM. In addition, in the series with NCI-H209, the IC50 was over 100 µM.
Turning to `c1c(CN2CCCCCCC2)c(-c2cc3ccc4c(c3cn2)OCO4)cc2c1OCO2`, the figures for the IC50 at 72 h in [2] and in series [9] were 23 µM and 24.3 µM, respectively. Further, the IC50 in the series on NCI-H1048 [6] was found to be 5.17 µM; in the series on NCI-H146, 15.1 µM; with SHP77, 5.09 µM; in [8] it was 10.9 µM; in the series on NCI-H82, 10.2 µM; in the series on NCI-H446 [11] it was 1.48 µM. Inhibition in the series on NCI-H209 was half-maximal at 26.8 µM (IC50).
